Here are results for four molecules from patent US20070207145A1, “MOUSE/HUMAN […] ANTI-PHE[…] AND USES THEREOF” (BOARD OF TRUSTEES OF THE UNIVERSITY OF ARKANSAS, priority 2003, published 2007).

Data set [1] deals with PCP's adverse health effects. Briefly: dose-dependent effects of mAb6B5 IgG on health and behavior of rats continuously infused with PCP. Type of data set: in vivo. On the procedure: This series of experiments assessed the dose-dependent effects mAb6B5 IgG on measures of health and behavior (Laurenzana et al., 2003). Rats were implanted with s.c. osmotic minipumps filled to deliver PCP at a rate of 18 mg/kg/day. Baseline PCP-induced locomotor activity was assessed (24 hr after start of PCP infusion), and then saline or various doses of mAb6B5 IgG were administered i.v. The doses of mAb6B5 ranged from 1 mol-eq of serum PCP concentration at steady state (1.53 g/kg of mAb6B5 IgG), down to 0.003 mol-eq (0.005 g/kg).
On a daily basis, rats were assessed on the amount of food eaten, body weight, general health, and evidence of chromodacryorrhea (“bloody tears” or red lacrimal secretions), an indicator of PCP-induced stress. […] The dose-dependent effects of mAb6B5 IgG on body weight produced some of the most interesting and profound effects (FIG. 8). […] PCP-induced reductions in feeding and drinking behavior obviously contributed to the weight loss in these groups. But their eating behavior normalized by day 4, probably secondary to the development of tolerance to the drug. This allowed these rats to better maintain their health and well-being. […] The PCP-induced weight loss achieved maximum on about day 4 of the experiment. […] 25% of the rats died or had to be sacrificed for humane reasons. […]

The conditions of data set [2]: in humans; cited from earlier work.
For data set [3] the following is noted: rats, s.c. infusion 18 mg/kg/day; cited from earlier work.
The next data set has as its system PCP receptor. As to conditions: drug discrimination and PCP receptor binding assays; cited from earlier work.
A short description of data set [4]: radioimmunoassay (RIA) with [3H]PCP. In kind it is binding.
Experimental: A 100 μl aliquot of [^3H]PCP (30,000-40,000 dpm) in RIA buffer (50 mM Tris-HCl adjusted to pH 7.6, 0.15M NaCl, 0.1% BSA and 0.2% NaN3) was added to 50×14 mm sample tubes (Sarsedt, Princeton, N.J.). Then 100 γl of appropriate concentration of test ligand was added to duplicate tubes. […] A 100 μl aliquot of this dilution was then added to all tubes except the tubes for non-specific binding. To nonspecific binding tubes 100 μl of RIA buffer was added. After vortex mixing, the tubes were incubated at 4-8° C. overnight. Next, 1 ml of RIA buffer containing 5% goat anti-mouse IgG (Pel-Freez Biologicals, Rogers, Ark.) and 5% polyethylene glycol 8000 (J. T. Baker Chemical Co.) was added. The tubes were incubated for 15 min at 4-8° C. and centrifuged at the same temperature for 15 min at 2000×g to precipitate the antibody-bound reactivity. The supernatant fluid was aspirated and the pellet was resuspended in the same test tube with 2 ml of scintillation fluid (Liquiscint, National Diagnostics, Manville, N.J.). The tube was placed in a 7 ml scintillation vial and the concentration of [^3H]PCP was determined by liquid scintillation spectrometry.
The IC50 for both methods very closely approximates the affinity of an antibody.

For the molecule `c1ccc(C2(N3CCCCC3)CCCCC2)cc1` [PCP, Phencyclidine], the “rats that died or had to be sacrificed” value in data set [1] (PCP-saline and PCP-0.003 mol Eq groups, days 4 through 7, 18 mg/kg/day) is 25%. For the same molecule, in data set [1] (repeated PCP-saline control experiment), the “animals that died as a result of PCP administration” value was 1 of 4. Also, the “volume of distribution (Vd)” value in data set [2] was 6.2 L/kg. Besides, the “half-life (t1/2)” value in data set [3] was 4 h.

As for `CCNC1(c2ccccc2)CCCCC1` [PCE, N-ethyl-1-phenylcyclohexylamine], the “potency relative to PCP (times more potent)” value in the data set on PCP receptor was around 6 times.

With `c1csc(C2(N3CCCCC3)CCCCC2)c1` [TCP, 1-[1-(2-thienyl)cyclohexyl]piperidine], in the data set on PCP receptor, the “potency relative to PCP (times more potent)” value is given as “about 1.3 times”.

B1: ch-mAb6B5: mouse/human chimeric anti-PCP monoclonal antibody: mAb6B5 variable domains on human IgG2 heavy chain and kappa light chain constant domains (antibody)
heavy: MECSCVMLFLLSGTAGVLSEVQLQQSGPELVKPGASVKMSCKASGYTGTDYYIHWMKQSHGKSLEWIGYIYPNNGGNGYNQKFKGKATLTVDKSSSTAYMELRTLTSEDSAVYYCGRSTWDDFDYWGQGTTLTVSSASTKGPSVFPLAPCSRSTSESTAALGCLVKDYFPEPVTVSWNSGALTSGVHTFPAVLQSSGLYSLSSVVTVPSSNFGTQTYTCNVDHKPSNTKVDKTVERKCCVECPPCPAPPVAGPSVFLFPPKPKDTLMISRTPEVTCVVVDVSHEDPEVQFNWYVDGVEVHNAKTKPREEQFNSTFRVVSVLTVVHQDWLNGKEYKCKVSNKGLPAPIEKTISKTKGQPREPQVYTLPPSREEMTKNQVSLTCLVKGFYPSDIAVEWESNGQPENNYKTTPPMLDSDGSFFLYSKLTVDKSRWQQGNVFSCSVMHEALHNHYTQKSLSLSPGK
light: MKLPVRLLVLMFWIPASSSDVLMTQTPLSLPVSLGDQASISCRSSQTIVHSNGNTYLEWYLQKPGQSPKLLIYKVSNRFSGVPDRFSGSGSGTDFTLKISRVEAEDLGVYYCFQGTHAPYTFGGGTKLEIKTAAAPSVFIFPPSDEQLKSGTASVVCLLNNFYPREAKVQWKVDNALQSGNSQESVTEQDSKDSTYSLSSTLTLSKADYEKHKVYACEVTHQGLSSPVTKSFNRGEC
modifications: Amino acid sequence of anti-PCP ch-mAb6B5 heavy chain.; Amino acid sequence of anti-PCP ch-mAb6B5 light chain.
On to B1, for which half-maximal inhibition in data set [4] (IC50) required 1.6 nM. The Kd (as a rule, the free concentration of one partner at which half of the binding sites on the other are occupied at equilibrium, for simple one-to-one binding) in data set [4] (chimeric antibody) was 1.6 nM.
